Species on record: Rattus norvegicus
Experiment: DrugMatrix - Regimen: Daily Repeat
Assay type: toxicity, organism-based, Sprague-Dawley
Set-up: regimen Daily Repeat, gender Male, age 6-8 weeks
Conditions: in vivo, po, route oral GAVAGE, vehicle .5 % CMC; for ABSOLUTE BASOPHIL / ABSOLUTE EOSINOPHIL / ABSOLUTE LYMPHOCYTE / ABSOLUTE MONOCYTE / ABSOLUTE SEGMENTED NEUTROPHIL / BASOPHIL / EOSINOPHIL / ERYTHROCYTE COUNT / HEMATOCRIT / HEMOGLOBIN / LEUKOCYTE COUNT / LYMPHOCYTE / MEAN CORPUSCULAR HEMOGLOBIN / MEAN CORPUSCULAR HEMOGLOBIN CONCENTRATION / MEAN CORPUSCULAR VOLUME / MONOCYTE / NEUTROPHIL / NUCLEATED RED BLOOD CELLS / PLATELET COUNT: tissue Blood; for ALANINE AMINOTRANSFERASE / ALBUMIN / ALKALINE PHOSPHATASE / ASPARTATE AMINOTRANSFERASE / BLOOD UREA NITROGEN / CARBON DIOXIDE / CHLORIDE / CHOLESTEROL / CREATINE PHOSPHOKINASE / CREATININE / GLUCOSE / LACTATE DEHYDROGENASE / LIPASE / PHOSPHORUS / POTASSIUM / SODIUM / TOTAL BILIRUBIN / TOTAL PROTEIN / URIC ACID: tissue Plasma
[1] = 0 mg/kg, 72 h, dose level Control, time 3 day
[2] = 0 mg/kg, 120 h, dose level Control, time 5 day
[3] = 30 mg/kg, 72 h, dose level Low, time 3 day
[4] = 30 mg/kg, 120 h, dose level Low, time 5 day

## COc1ccc(/C=C/C(=O)Nc2ccccc2C(=O)O)cc1OC
[1]
  ABSOLUTE BASOPHIL: 0 CELLS/uL
  ABSOLUTE EOSINOPHIL: 222.83 CELLS/uL
  ABSOLUTE LYMPHOCYTE: 14453 CELLS/uL
  ABSOLUTE MONOCYTE: 0 CELLS/uL
  ABSOLUTE SEGMENTED NEUTROPHIL: 1490.83 CELLS/uL
  BASOPHIL: 0%
  EOSINOPHIL: 1.33%
  ERYTHROCYTE COUNT: 5.76 x10E6/uL
  HEMATOCRIT: 36.52%
  HEMOGLOBIN: 13.45 G/DL
  LEUKOCYTE COUNT: 16.17 x10E3/uL
  LYMPHOCYTE: 89.33%
  MEAN CORPUSCULAR HEMOGLOBIN: 23.37 pg
  MEAN CORPUSCULAR HEMOGLOBIN CONCENTRATION: 36.85 G/DL
  MEAN CORPUSCULAR VOLUME: 63.47 fL
  MONOCYTE: 0%
  NEUTROPHIL: 9.33%
  NUCLEATED RED BLOOD CELLS: 0 /100WBC
  PLATELET COUNT: 1239.5 x10E3/uL
  ALANINE AMINOTRANSFERASE: 43.83 u/L
  ALBUMIN: 4.27 G/DL
  ALKALINE PHOSPHATASE: 398.83 u/L
  ASPARTATE AMINOTRANSFERASE: 81.17 u/L
  BLOOD UREA NITROGEN: 17.67 mg/dL
  CARBON DIOXIDE: 27.5 mmol/L
  CHLORIDE: 99.17 MEQ/L
  CHOLESTEROL: 74 mg/dL
  CREATINE PHOSPHOKINASE: 331.5 u/L
  CREATININE: 0.2 mg/dL
  GLUCOSE: 171.33 mg/dL
  LACTATE DEHYDROGENASE: 241.67 u/L
  LIPASE: 9.5 u/L
  PHOSPHORUS: 12.25 mg/dL
  POTASSIUM: 6.33 MEQ/L
  SODIUM: 141.28 MEQ/L
  TOTAL BILIRUBIN: 0.15 mg/dL
  TOTAL PROTEIN: 5.98 G/DL
  URIC ACID: 1.63 mg/dL
[2]
  ABSOLUTE BASOPHIL: 0 CELLS/uL
  ABSOLUTE EOSINOPHIL: 148.67 CELLS/uL
  ABSOLUTE LYMPHOCYTE: 16020.5 CELLS/uL
  ABSOLUTE MONOCYTE: 29.17 CELLS/uL
  ABSOLUTE SEGMENTED NEUTROPHIL: 1468.33 CELLS/uL
  BASOPHIL: 0%
  EOSINOPHIL: 1%
  ERYTHROCYTE COUNT: 5.78 x10E6/uL
  HEMATOCRIT: 35.77%
  HEMOGLOBIN: 13.4 G/DL
  LEUKOCYTE COUNT: 17.67 x10E3/uL
  LYMPHOCYTE: 90.5%
  MEAN CORPUSCULAR HEMOGLOBIN: 23.22 pg
  MEAN CORPUSCULAR HEMOGLOBIN CONCENTRATION: 37.47 G/DL
  MEAN CORPUSCULAR VOLUME: 61.92 fL
  MONOCYTE: 0.17%
  NEUTROPHIL: 8.33%
  NUCLEATED RED BLOOD CELLS: 0.17 /100WBC
  PLATELET COUNT: 1255.5 x10E3/uL
  ALANINE AMINOTRANSFERASE: 46.5 u/L
  ALBUMIN: 4.38 G/DL
  ALKALINE PHOSPHATASE: 336 u/L
  ASPARTATE AMINOTRANSFERASE: 76.5 u/L
  BLOOD UREA NITROGEN: 20 mg/dL
  CARBON DIOXIDE: 27.5 mmol/L
  CHLORIDE: 101 MEQ/L
  CHOLESTEROL: 71.33 mg/dL
  CREATINE PHOSPHOKINASE: 231.83 u/L
  CREATININE: 0.37 mg/dL
  GLUCOSE: 168.83 mg/dL
  LACTATE DEHYDROGENASE: 174 u/L
  LIPASE: 8.67 u/L
  PHOSPHORUS: 11.48 mg/dL
  POTASSIUM: 6.82 MEQ/L
  SODIUM: 143.8 MEQ/L
  TOTAL BILIRUBIN: 0.2 mg/dL
  TOTAL PROTEIN: 5.98 G/DL
  URIC ACID: 1.83 mg/dL
[3]
  ABSOLUTE BASOPHIL: 0 CELLS/uL
  ABSOLUTE EOSINOPHIL: 217.33 CELLS/uL
  ABSOLUTE LYMPHOCYTE: 12060 CELLS/uL
  ABSOLUTE MONOCYTE: 0 CELLS/uL
  ABSOLUTE SEGMENTED NEUTROPHIL: 1122.67 CELLS/uL
  BASOPHIL: 0%
  EOSINOPHIL: 1.67%
  ERYTHROCYTE COUNT: 5.52 x10E6/uL
  HEMATOCRIT: 34.6%
  HEMOGLOBIN: 13.1 G/DL
  LEUKOCYTE COUNT: 13.4 x10E3/uL
  LYMPHOCYTE: 90%
  MEAN CORPUSCULAR HEMOGLOBIN: 23.77 pg
  MEAN CORPUSCULAR HEMOGLOBIN CONCENTRATION: 37.9 G/DL
  MEAN CORPUSCULAR VOLUME: 62.73 fL
  MONOCYTE: 0%
  NEUTROPHIL: 8.33%
  NUCLEATED RED BLOOD CELLS: 0 /100WBC
  PLATELET COUNT: 1155.33 x10E3/uL
  ALANINE AMINOTRANSFERASE: 48.67 u/L
  ALBUMIN: 4.13 G/DL
  ALKALINE PHOSPHATASE: 344.33 u/L
  ASPARTATE AMINOTRANSFERASE: 77 u/L
  BLOOD UREA NITROGEN: 14.67 mg/dL
  CARBON DIOXIDE: 23.67 mmol/L
  CHLORIDE: 103.67 MEQ/L
  CHOLESTEROL: 71 mg/dL
  CREATINE PHOSPHOKINASE: 180 u/L
  CREATININE: 0.19 mg/dL
  GLUCOSE: 159.67 mg/dL
  LACTATE DEHYDROGENASE: 96.67 u/L
  LIPASE: 8 u/L
  PHOSPHORUS: 12.47 mg/dL
  POTASSIUM: 5.88 MEQ/L
  SODIUM: 144.63 MEQ/L
  TOTAL BILIRUBIN: 0.17 mg/dL
  TOTAL PROTEIN: 5.67 G/DL
  URIC ACID: 1.47 mg/dL
[4]
  ABSOLUTE BASOPHIL: 0 CELLS/uL
  ABSOLUTE EOSINOPHIL: 278.67 CELLS/uL
  ABSOLUTE LYMPHOCYTE: 14764.67 CELLS/uL
  ABSOLUTE MONOCYTE: 0 CELLS/uL
  ABSOLUTE SEGMENTED NEUTROPHIL: 1590 CELLS/uL
  BASOPHIL: 0%
  EOSINOPHIL: 1.67%
  ERYTHROCYTE COUNT: 5.36 x10E6/uL
  HEMATOCRIT: 34.2%
  HEMOGLOBIN: 13.03 G/DL
  LEUKOCYTE COUNT: 16.63 x10E3/uL
  LYMPHOCYTE: 88.67%
  MEAN CORPUSCULAR HEMOGLOBIN: 24.4 pg
  MEAN CORPUSCULAR HEMOGLOBIN CONCENTRATION: 38.1 G/DL
  MEAN CORPUSCULAR VOLUME: 63.97 fL
  MONOCYTE: 0%
  NEUTROPHIL: 9.67%
  NUCLEATED RED BLOOD CELLS: 0.33 /100WBC
  PLATELET COUNT: 1260.33 x10E3/uL
  ALANINE AMINOTRANSFERASE: 59 u/L
  ALBUMIN: 4.5 G/DL
  ALKALINE PHOSPHATASE: 404 u/L
  ASPARTATE AMINOTRANSFERASE: 84.33 u/L
  BLOOD UREA NITROGEN: 18.33 mg/dL
  CARBON DIOXIDE: 25.33 mmol/L
  CHLORIDE: 103 MEQ/L
  CHOLESTEROL: 75.67 mg/dL
  CREATINE PHOSPHOKINASE: 221 u/L
  CREATININE: 0.18 mg/dL
  GLUCOSE: 161.67 mg/dL
  LACTATE DEHYDROGENASE: 269 u/L
  LIPASE: 9 u/L
  PHOSPHORUS: 12.57 mg/dL
  POTASSIUM: 6.47 MEQ/L
  SODIUM: 145.07 MEQ/L
  TOTAL BILIRUBIN: 0.1 mg/dL
  TOTAL PROTEIN: 6.03 G/DL
  URIC ACID: 1.6 mg/dL

From ChEMBL document CHEMBL3885881, “DrugMatrix”
